What follows are compounds tested on Staphylococcus epidermidis (assay: Beneficial skin bacteria affinity evaluation (challenge test)). Settings: Experimental Example 1; ingredient in oil-in-water composition of Preparation Example 1; FIG. 2 / FIG. 3.
Format: cell-based
Source text: As the beneficial bacteria serving as the affinity evaluation criterion of each composition prepared in Preparation Example 1, Staphylococcus epidermidis (S. epidermidis), a Gram positive bacterium, was selected. S. epidermidis is part of the skin flora present in large numbers in healthy skin, and is a representative beneficial bacterium that helps improve skin immunity and protect skin from external environmental factors by producing peptide antibiotics or PSM (phenol-soluble modulins) (Parlet, C. P., et al. (2019) Trends in microbiology, 27(6), 497-507). The evaluation of affinity for beneficial bacteria was performed by the challenge test method (Russell A. D., (2003), Int J Cosmet Sci., 25(3), 147-153) as follows.
Specifically, S. epidermidis was first incubated in TSA (Tryptic Soy Agar) medium at 37° C. for 24 hours, and then inoculated into 50.0 g of each composition prepared in Preparation Example 1 so as to be 1×10^6 CFU to 1×10^7 CFU (colony-forming units)/mL. After inoculation, the bacteria were evenly mixed in the composition by vortexing or using a sterilized stick. After inoculation, the mixture was stored at room temperature. In consideration of the product usage cycle, such as cosmetics, and the general usage patterns of these products, a maximum of 24 hours was set as the time required for examination. With this determination, 24 hours after inoculation, 1 mL of the composition inoculated with the bacteria was diluted stepwise using a 0.85% NaCl solution, 100 μL of each diluted solution was spread on TSA medium, incubation was conducted at 37° C. for 48 hours, and then CFUs were counted.
As the affinity evaluation criterion, the following “bacterial growth index*” parameter was used, and a composition having a bacterial growth index of −1.00 or more on day 1 after inoculation of bacteria was selected as a “cosmetic with beneficial skin bacteria-friendly properties” having an effect of maintaining beneficial skin bacteria or enhancing beneficial skin bacteria.
*Bacterial growth index=log10[{Number of viable bacteria (CFU/g)}/{Number of inoculated bacteria (CFU/g)}]

With sodium dilauramidoglutamide lysine as the compound, how does the “growth of beneficial bacteria (result in words)” value (from here on “growth of beneficial bacteria”) read?
The value was “did not inhibit the growth of beneficial bacteria”.

With CCOCCOCCOC(=O)C1CCC(C(=O)OCCOCCOCC)CC1 (centres unmarked) [bis-ethoxydiglycol cyclohexane 1,4-dicarboxylate] as the compound, how does the “growth of beneficial bacteria” value read?
Its value is “inhibit the growth of beneficial bacteria”.

inulin lauryl carbamate was tested. Which “growth of beneficial bacteria” value did it give?
The value was “did not inhibit the growth of beneficial bacteria”.

For diethoxyethyl succinate, which “growth of beneficial bacteria” value is on record?
Its value is “inhibit the growth of beneficial bacteria”.

C=CCCCCCCCCC(=O)OCCCCCCC [heptyl undecylenate] was tested. Which “growth of beneficial bacteria” value did it give?
Its value is “inhibit the growth of beneficial bacteria”.

— patent US20230381094A1, “Cosmetic Composition with Skin Microbiome-Friendly Properties” (LG Household & Health Care Ltd., priority 2022, published 2023)
